Results published in patent EP0436902B1, “5-Fluorouracil derivatives” (OTSUKA PHARMACEUTICAL CO., LTD., priority 1984, dated 1986).

The compounds below were run on Sarcoma-180 (assay: Pharmacological Test I: antitumor effect on subcutaneously transplanted Sarcoma-180 solid tumor in mice). Conditions: Mus musculus, 240 h; ICR mice, Sarcoma-180 2 X 10⁷ cells subcutaneously; oral, once a day for 7 consecutive days, suspended in 5 % gum arabic; tumor weight on the 10th day; from dose-response curve; read-out: ED₅₀ (50 % tumor inhibition dose in which T/C is 0.5).
Type: in vivo
Method: Isophthaloyl chloride (1.50 g) and 6.0 ml of triethylamine were added to a solution of 1.00 g of 5-fluoro-1-(2-tetrahydrofuranyl)uracil in 50 ml of dioxane. The mixture was refluxed for 1.5 hours. The resulting precipitate was removed by filtration and the filtrate was concentrated. To the concentrate was added 50 ml of methylene chloride and thereto added was 10 ml of a solution of 1.50 g of 2,6-bis(trimethylsilyloxy)pyridine in methylene chloride. The mixture was left to stand at room temperature for 3 hours. The solvent was distilled off and the residue was subjected to silica gel column chromatography using as an eluent 2 % methanol-chloroform, giving 0.30 g of the title compound in a yield of 14 %. ¹H-NMR(CDCl₃)δ: 8.66-8.19 (3H, m, [drawing 76] 7.83-7.62 (2H, m, [drawing 77] and C₄-H of the pyridine ring) 7.52 (1H, d, J = 6Hz, C₆-H) 6.77 and 6.68 (each 1H, d, J = 8Hz, C₃·₅-H of the pyridine ring) 5.99-5.92 (1H, m, C1'-H) 4.30-3.88 (2H, m, C4'-H) 2.44-1.89 (4H, m, C2'·3'-H) Pharmacological Test I • (a) Sarcoma-180 subcultured in an ascites of ICR mice was diluted with a physiological saline solution and subcutaneously transplanted into the backs of ICR mice in an amount of 2 X 10⁷ cells each. Twenty-four hours after the transplantation, a test compound suspended in a 5 % solution of gum arabic was orally administered to each of mice once a day for 7 consecutive days.
The solid tumor was extirpated from under the dorsal skin of mice on the 10th day after the transplantation to measure the weight of the tumor. There was determined the ratio (T/C) of the weight or tumor (T) cut out from the group of mice treated with the test compound to the weight of tumor (C) from the group of mice not treated therewith. The 50 % tumor inhibition dose (ED₅₀ value) in which T/C is 0.5 was determined from the dose-response curve of dosage and the ratio (T/C).
Table 1 below lists the results together with the value obtained by using as a control an anti-cancer preparation containing 5-fluoro-1-(2-tetrahydrofuranyl)uracil and uracil in a ratio by weight of 1 to 4.

O=C(Oc1cc(OC(=O)c2ccccc2)c(Cl)cn1)c1cccc(C(=O)n2c(=O)c(F)cn(C3CCCO3)c2=O)c1 (centres unmarked) [Example 4, 3-[3-(4-benzoyloxy-5-chloro-2-pyridyloxycarbonyl)benzoyl]-5-fluoro-1-(2-tetrahydrofuranyl)uracil] and O=C(Oc1cc(OC(=O)c2cccc(C(=O)n3c(=O)c(F)cn(C4CCCO4)c3=O)c2)c(Cl)cn1)c1ccccc1 (centres unmarked) [Example 3, 3-[3-(2-benzoyloxy-5-chloro-4-pyridyloxycarbonyl)benzoyl]-5-fluoro-1-(2-tetrahydrofuranyl)uracil] are within 1.5-fold of each other in ED50: 18 mg/kg for the first, 25 mg/kg for the second.

Going from O=C(Oc1cc(=O)n(C2CCCO2)cc1Cl)c1cccc(C(=O)n2c(=O)c(F)cn(C3CCCO3)c2=O)c1 (centres unmarked) [Example 10, 3-[3-[5-chloro-1,2-dihydro-2-oxo-1-(2-tetrahydrofuranyl)-4-pyridyloxycarbonyl]benzoyl]-5-fluoro-1-(2-tetrahydrofuranyl)uracil] to O=C(Oc1cc[nH]c(=O)c1)c1cccc(C(=O)n2c(=O)c(F)cn(C3CCCO3)c2=O)c1 (centres unmarked) [Example 1, 3-[3-(1,2-dihydro-2-oxo-4-pyridyloxycarbonyl)benzoyl]-5-fluoro-1-(2-tetrahydrofuranyl)uracil], the ED50 falls from 28 mg/kg to 10 mg/kg (2.8-fold).

Compound N#Cc1ccc(OC(=O)c2ccco2)nc1OC(=O)c1cccc(C(=O)n2c(=O)c(F)cn(C3CCCO3)c2=O)c1 (centres unmarked) [Example 15, 3-[3-[3-cyano-6-(2-furoyloxy)-2-pyridyloxycarbonyl]benzoyl]-5-fluoro-1-(2-tetrahydrofuranyl)uracil] has an ED50 of 18 mg/kg.
